From US20260272964A1, “PENTAGALLOYL GLUCOSE DERIVED FROM SCHINUS PLANTS AND METHODS OF USE” (Emory University, priority 2020, published 2026)
Converted amounts (≈) assume the structure as drawn. “And” between values parts separate entries of the source, which are not always exact repeats. Equal values may be shown once. “Also recorded” adds a separate entry of the source. Read-outs that look alike come from different tables or passages of the source.

Key:
Enterobacter cloacae = assay: Growth inhibition of ESKAPE pathogens; format: cell-based
Method: (§1) PGG was also tested against a panel of other ESKAPE pathogens: Enterococcus faecium, Staphylococcus aureus, Klebsiella pneumoniae, Pseudomonas aeruginosa, and Enterobacter cloacae.

Enterococcus faecium = assay: Growth inhibition of ESKAPE pathogens; format: cell-based
Method: as §1

Klebsiella pneumoniae = assay: Growth inhibition of ESKAPE pathogens; format: cell-based
Method: as §1

Pseudomonas aeruginosa = assay: Growth inhibition of ESKAPE pathogens; format: cell-based
Method: as §1

Staphylococcus aureus = assay: Growth inhibition of ESKAPE pathogens; format: cell-based; conditions: strain LAC
Method: as §1

Candida albicans = assay: Growth inhibition of Candida species; format: cell-based
Method: (§2) The activity of PGG was tested for growth inhibition against two susceptible strains and 6 drug resistant strains from three Candida species (Table 2). […] The activity of PGG followed a dose-response curve against tested strains. Typically the strains tested had MICs less than 2 μg/mL. Candida glabrata (AR Bank #0335) yielded the highest MIC at 8 μg/mL.

Candida parapsilosis = assay: Growth inhibition of Candida species; format: cell-based; conditions: Lodderomyces parapsilosis
Method: as §2

Candida tropicalis = assay: Growth inhibition of Candida species; format: cell-based; conditions: Table 2, strain AR Bank #0345
Method: as §2

A. baumannii AB5075 [1] = assay: Biofilm formation inhibition and biofilm eradication; format: cell-based, Acinetobacter baumannii
Excerpt: However, there was no significant difference between PGG and control with regards to biofilm promotion or inhibition at any concentration tested and no dose-response trend was noted.

A. baumannii [2] = assay: Growth inhibition assays with media supplementation; format: cell-based, Acinetobacter baumannii
Method: (§3) PGG antibacterial activity may be attributed to its chelation of iron. One can use a colorimetric assay to quantify binding of free iron by PGG. One can perform bioassays with iron supplementation and 2,2′-dipyridyl, a known iron chelator, as a control. To elucidate potential mechanisms of action of PGG, A. baumannii growth inhibition and time-kill assays were carried out with various supplements in combination with PGG: 0.02% oleic acid, 0.02% polysorbate 80, 1 mM iron (II) sulfate, and 1 mM iron (III) sulfate. […] Furthermore, PGG combined with oleic acid, polysorbate 80, and iron (II) sulfate treatments had roughly tenfold, 100-fold, and 1,000-fold higher CFU/mL measurements, respectively, than PGG alone at the 24 h timepoint.

A. baumannii [3] = assay: Time-kill assays with and without supplements; format: cell-based, Acinetobacter baumannii
Method: as §3

A. baumannii AB5075 [4] = assay: Restoration assay (iron addition to PGG-treated wells); format: cell-based, Acinetobacter baumannii; conditions: AB5075, 1 mM iron (II) or iron (III) sulfate on PGG-treated wells, 24-48 h
Method: To test for the restoration of bacterial growth after iron addition, iron (II) and iron (III) sulfate were spread at concentrations of 1 mM on PGG-treated A. baumannii AB5075 wells that had no visible colonies after 24 h of incubation. Immediately after addition of iron to the agar, all wells containing PGG obtained a purple color, increasing in darkness with increasing PGG concentration.

A. baumannii AB5075 [5] = assay: Resistance studies (agar plates and 21-day serial passaging); format: cell-based, Acinetobacter baumannii
Method: To test for spontaneous development of resistance to PGG, A. baumannii AB5075 was inoculated on agar plates containing PGG at 0.5×MIC, 1×MIC, and 2×MIC (128, 256, and 512 μg/mL, respectively), and a control plate containing no PGG. […] Next, evolution of resistance was tested by serial passaging A. baumannii AB5075 for 21 days in the presence of a PGG gradient, using culture from the 0.5×MIC treatment for each subsequent passage. Serial passaging with a tetracycline gradient served as a control.

Candida species = assay: Growth inhibition of a panel of Candida strains; format: cell-based
Method: as §2

ESKAPE pathogens = assay: Growth inhibition of a panel of ESKAPE pathogens (overall); format: cell-based
Method: as §1

[6] = in vivo; cited from earlier work

O=C(OC[C@H]1O[C@@H](OC(=O)c2cc(O)c(O)c(O)c2)[C@H](OC(=O)c2cc(O)c(O)c(O)c2)[C@@H](OC(=O)c2cc(O)c(O)c(O)c2)[C@@H]1OC(=O)c1cc(O)c(O)c(O)c1)c1cc(O)c(O)c(O)c1 [PGG, [(2R,3R,4S,5R,6S)-3,4,5,6-tetrakis[(3,4,5-trihydroxybenzoyl)oxy]oxan-2-yl]methyl 3,4,5-trihydroxybenzoate]
MIC (Enterobacter cloacae; read-out: PGG MIC): > 256 µg/mL
IC50 (Enterobacter cloacae; strain AR Bank #0032, read-out: PGG IC50): 64 µg/mL (≈ 68 µM)
IC50 (Enterococcus faecium; strain NR-31915, read-out: PGG IC50): 128 µg/mL (≈ 136 µM)
MIC (Enterococcus faecium; strain NR-31915, read-out: PGG MIC): > 256 µg/mL
MIC (Klebsiella pneumoniae; read-out: PGG MIC): 256 µg/mL (≈ 272 µM)
IC50 (Klebsiella pneumoniae; strain NR-15410, read-out: PGG IC50): 8 µg/mL (≈ 8.5 µM)
MIC (Pseudomonas aeruginosa; P. aeruginosa, strain not given, read-out: MIC): 16 µg/mL (≈ 17 µM)
IC50 (Pseudomonas aeruginosa; strain AR Bank #0054, read-out: PGG IC50): 8 µg/mL (≈ 8.5 µM)
MIC (Pseudomonas aeruginosa; strain AR Bank #0054, read-out: PGG MIC): > 64 µg/mL
IC50 (Pseudomonas aeruginosa; strain AR Bank #0064, read-out: PGG IC50): 4 µg/mL (≈ 4.25 µM)
MIC (Pseudomonas aeruginosa; strain AR Bank #0064, read-out: PGG MIC): 16 µg/mL (≈ 17 µM)
IC50 (Pseudomonas aeruginosa; strain AR Bank #0090, read-out: PGG IC50): 4 µg/mL (≈ 4.25 µM)
MIC (Pseudomonas aeruginosa; strain AR Bank #0090, read-out: PGG MIC): > 64 µg/mL
IC50 (Pseudomonas aeruginosa; strain AR Bank #0092, read-out: PGG IC50): 4 µg/mL (≈ 4.25 µM)
MIC (Pseudomonas aeruginosa; strain AR Bank #0092, read-out: PGG MIC): > 64 µg/mL
IC50 (Pseudomonas aeruginosa; strain AR Bank #0094, read-out: PGG IC50): 8 µg/mL (≈ 8.5 µM)
MIC (Pseudomonas aeruginosa; strain AR Bank #0094, read-out: PGG MIC): 64 µg/mL (≈ 68 µM)
IC50 (Pseudomonas aeruginosa; strain AR Bank #0095, read-out: PGG IC50): 8 µg/mL (≈ 8.5 µM)
MIC (Pseudomonas aeruginosa; strain AR Bank #0095, read-out: PGG MIC): 64 µg/mL (≈ 68 µM)
IC50 (Pseudomonas aeruginosa; strain AR Bank #0100, read-out: PGG IC50): 8 µg/mL (≈ 8.5 µM)
MIC (Pseudomonas aeruginosa; strain AR Bank #0100, read-out: PGG MIC): > 64 µg/mL
IC50 (Pseudomonas aeruginosa; strain AR Bank #0103, read-out: PGG IC50): 4 µg/mL (≈ 4.25 µM)
MIC (Pseudomonas aeruginosa; strain AR Bank #0103, read-out: PGG MIC): 64 µg/mL (≈ 68 µM)
IC50 (Pseudomonas aeruginosa; strain AR Bank #0105, read-out: PGG IC50): 32 µg/mL (≈ 34 µM)
MIC (Pseudomonas aeruginosa; strain AR Bank #0105, read-out: PGG MIC): > 64 µg/mL
IC50 (Pseudomonas aeruginosa; strain AR Bank #0108, read-out: PGG IC50): 8 µg/mL (≈ 8.5 µM)
MIC (Pseudomonas aeruginosa; strain AR Bank #0108, read-out: PGG MIC): > 64 µg/mL
IC50 (Pseudomonas aeruginosa; strain AR Bank #0110, read-out: PGG IC50): 4 µg/mL (≈ 4.25 µM)
MIC (Pseudomonas aeruginosa; strain AR Bank #0110, read-out: PGG MIC): 64 µg/mL (≈ 68 µM)
IC50 (Pseudomonas aeruginosa; strain AR Bank #0111, read-out: PGG IC50): 4 µg/mL (≈ 4.25 µM)
MIC (Pseudomonas aeruginosa; strain AR Bank #0111, read-out: PGG MIC): 64 µg/mL (≈ 68 µM)
IC50 (Pseudomonas aeruginosa; strain PA01, read-out: PGG IC50): 8 µg/mL (≈ 8.5 µM)
MIC (Pseudomonas aeruginosa; strain PA01, read-out: PGG MIC): 16 µg/mL (≈ 17 µM)
IC50 (Staphylococcus aureus; read-out: PGG IC50): 16 µg/mL (≈ 17 µM)
MIC (Staphylococcus aureus; read-out: PGG MIC): 64 µg/mL (≈ 68 µM)
IC50 (Candida albicans; Candida albicans, Table 2, strain ARMH12 (Flc^R)): 0.5 µg/mL (≈ 0.532 µM)
MIC (Candida albicans; Candida albicans, Table 2, strain ARMH12 (Flc^R), read-out: MIC): 1 µg/mL (≈ 1.06 µM)
IC50 (Candida albicans; Candida albicans, Table 2, strain ATCC10231): 0.25 µg/mL (≈ 0.266 µM)
MIC (Candida albicans; Candida albicans, Table 2, strain ATCC10231, read-out: MIC): 0.5 µg/mL (≈ 0.532 µM)
IC50 (Candida albicans; Candida albicans, Table 3, strain ATCC90028): 1 µg/mL (≈ 1.06 µM)
MIC (Candida albicans; Candida albicans, Table 3, strain ATCC90028, read-out: MIC): 2 µg/mL (≈ 2.13 µM)
MIC (Candida albicans; Table 3, strain MH12): 1.0 µg/mL (≈ 1.06 µM)
IC50 (Candida parapsilosis; Table 2, strain AR Bank #0337): 0.5 µg/mL (≈ 0.532 µM)
MIC (Candida parapsilosis; Table 2, strain AR Bank #0337): 1 µg/mL (≈ 1.06 µM)
IC50 (Candida parapsilosis; Table 3, strain AR Bank #0337): 1 µg/mL (≈ 1.06 µM)
MIC (Candida parapsilosis; Table 3, strain AR Bank #0337): 1 µg/mL (≈ 1.06 µM)
IC50 (Candida parapsilosis; Table 3, strain AR Bank #0338): 0.5 µg/mL (≈ 0.532 µM)
MIC (Candida parapsilosis; Table 3, strain AR Bank #0338): 1 µg/mL (≈ 1.06 µM)
IC50 (Candida parapsilosis; Table 3, strain AR Bank #0339): 1 µg/mL (≈ 1.06 µM)
MIC (Candida parapsilosis; Table 3, strain AR Bank #0339): 2 µg/mL (≈ 2.13 µM)
IC50 (Candida tropicalis): 0.25 µg/mL (≈ 0.266 µM)
MIC (Candida tropicalis): 1 µg/mL (≈ 1.06 µM)
biofilm formation inhibition (A. baumannii AB5075 [1]; AB5075, 0.5-64 μg/mL (sub-MIC)): did not exhibit any antibiofilm activity
biofilm eradication (A. baumannii AB5075 [1]; AB5075, 2-256 μg/mL): did not exhibit any antibiofilm activity
biofilm formation relative to vehicle (DMSO) control (A. baumannii AB5075 [1]; AB5075, 8-64 μg/mL, not significant): mild promotion of biofilm formation
change of growth inhibition on supplementation (A. baumannii [2]; PGG 256-2 μg/mL with 1 mM iron (II) sulfate): attenuated growth inhibition
change of growth inhibition on supplementation (A. baumannii [2]; PGG 256-2 μg/mL with 1 mM iron (III) sulfate): attenuated growth inhibition
change of growth inhibition on supplementation (A. baumannii [2]; PGG 256-2 μg/mL with 0.02% oleic acid): no change in activity
change of growth inhibition on supplementation (A. baumannii [2]; PGG 256-2 μg/mL with 0.02% polysorbate 80): attenuated growth inhibition
kind of activity in time-kill (CFU/mL curve) (A. baumannii [3]; PGG alone, 256 μg/mL): bacteriostatic rather than bactericidal
CFU/mL relative to PGG alone (A. baumannii [3]; PGG combined with iron (II) sulfate, 24 h timepoint): ~1,000 fold
CFU/mL relative to PGG alone (A. baumannii [3]; PGG combined with oleic acid, 24 h timepoint): roughly tenfold
CFU/mL relative to PGG alone (A. baumannii [3]; PGG combined with polysorbate 80, 24 h timepoint): ~100 fold
restoration of bacterial growth after iron addition (A. baumannii AB5075 [4]): can be attenuated by addition of iron
evolution of resistance on serial passaging (A. baumannii AB5075 [5]; A. baumannii AB5075, 21 daily passages from the 0.5×MIC treatment): did not produce any resistant mutants; also recorded: remained stable; also recorded: did not stimulate any spontaneous resistance
spontaneous development of resistance (colonies on agar plates) (A. baumannii AB5075 [5]; A. baumannii AB5075, agar with 128, 256 and 512 μg/mL, 24 h): no colonies appeared
MIC (A. baumannii AB5075 [5]; Acinetobacter baumannii, AB5075, read-out: Base MIC): 256 µg/mL (≈ 272 µM)
MIC (Candida species; Candida strains tested, read-out: MICs typical of the strains tested): < 2 µg/mL
IC50 (Candida species; two susceptible and 6 drug resistant strains from three Candida species, read-out: IC50 values, range over strains): 0.25 µg/mL to 2 µg/mL and 260 nM to 2.1 µM
concentrations with activity against a wide range of pathogenic bacteria (ESKAPE pathogens): ≥ 64 µg/mL
oral bioavailability [6]: low oral bioavailability
